From patent US20070281865A1, “MULTI-FUNCTIONAL SPACER FOR GLYCANS” (priority 2006, published 2007)
Entries after “also recorded” stand apart in the source; their conditions may differ. One block for each molecule: values may come before it.

Key:
[1] = pKa of deprotected spacer; assay type: physicochemical
[2] = system: anti-carbohydrate antibodies in sera of metastatic breast cancer patients; assay: Sera of metastatic breast cancer patients on glycan array; assay type: binding, Human; conditions: sera 1:25; 9 MBC patients, 10 healthy
Description: Individual (not pooled) sera were collected from 9 patients who were diagnosed with metastatic breast cancer (MBC). Blood samples were collected before treatment, so that therapeutic intervention would not interfere with patient immune responses. One patient with breast cancer but with good prognosis (IDC, Stage 1) was also included in the study. As control, or “healthy” sera, sera from ten healthy individuals, 5 female and 5 male, with no known malignancies was collected.
(§1) Sera were diluted 1:25 with PBS containing 3% BSA, and placed on the glycan array slide in humidified chamber at room temperature for 90 min. The glycan array slide was then rinsed gently with PBS/0.05% Tween, incubated with biotinylated goat antibody against human IgG, IgM and IgA, rinsed in PBS/0.05% Tween, and incubated with streptavidin-Alexa488 fluorescent dye. Following rinses in PBS/0.05% Tween and H2O, glycan array slides were dried and scanned using the commercial DNA array scanner. […] Signal to background was typically greater 50:1 and no background subtractions were performed. Data were plotted using MS Excel software.

[3] = system: antibodies in serum of patients who received porcine fetal pancreas islet-like cell clusters; assay: Sera of xenotransplant recipients on glycan array; assay type: binding, Human; conditions: before and 1, 6, 12 months after transplantation
Description: In 1991-1994, several diabetic (I) patients received transplantation of porcine fetal pancreas islet-like cell clusters (ICC). See, Groth, C. G. et al. Transplantation of porcine fetal pancreas to diabetic patients, The Lancet 344: 1402-4 (1994). The inventor analyzed serum from three of these patients before transplant (t=0), 1 months after (t=1), 6 months after (t=2) and 12 months after (t=3) transplant.
as §1, with “as needed” for “1:25”

[4] = system: Human anti-HIV 2G12 monoclonal antibody; assay: 2G12 binding on glycan array; conditions: for binding of 2G12 antibody (in words): glycan array, 2G12 30 μg/mL pre-complexed with goat anti-human-IgG-FITC
Source text: Glycan array fabrication.
Glycan Binding Protein binding assay. […] Saliva samples were similarly handled.
Image acquisition and signal processing. […] Data were plotted using MS Excel software.

Concanavalin A (Con A) = Concanavalin A (Con A) (Canavalia ensiformis, UniProt P02866); conditions: printing times up to 5 hours

pKa1 [1]: 4.8
Molecule: C=CCCONC [Compound 1033]

Molecule: CC(=O)N[C@H]1[C@H](O[C@H]2[C@@H](O)[C@@H](CO)O[C@@H](O[C@H]3[C@H](O)[C@@H](O)C(O)O[C@@H]3CO)[C@@H]2O)O[C@H](CO)[C@@H](O)[C@@H]1O (stereo partly drawn) [LNT-2, GlcNAc-beta3-Gal-beta4-Glc-beta]
serum antibodies against glycan in metastatic breast cancer patients versus healthy individuals (in words) [2]: bind and higher

Molecule: Fucose-alpha2-Gal-beta3-GalNAc-beta3-Gal-alpha-4-Gal-beta4-Glc [Globo-H]
serum antibodies against glycan in metastatic breast cancer patients versus healthy individuals (in words) [2]: bind and higher

Molecule: Gal-beta3-GalNAc-beta4-[Neu5Ac-alpha3]-Gal-beta4-Glc-beta [GM1]
serum antibodies against glycan in metastatic breast cancer patients versus healthy individuals (in words) [2]: bind and higher

Molecule: Galβ1-4(Fucα1-3)GlcNAcβSp [Glycan 65]
serum antibodies against glycan in xenotransplant recipients (in words) [3]: do not have antibodies; also recorded: essentially no anti-LeX antibodies are detected

Molecule: Manα1-2Manα1-2Manα1-3(Manα1-2Manα1-3(Manα1-2Manα1-6)Manα1-6)Manβ1-4GlcNAcβ1-4GlcNAcβSp [Glycan 145]
binding of 2G12 antibody (in words) ([4]; listed as Man9): relatively weakly bound | binding of 2G12 antibody (in words) ([4]; listed as Man-9-N-glycans): smaller level of binding

Molecule: Manα1-2Manα1-3(Manα1-2Manα1-6)ManαSp [Glycan 136]
Rel. spec. (Relative binding activity) ([4]; binding of 2G12 to mannose containing glycans in the glycan array): +++ (+++ > 25,000) | binding of 2G12 antibody (in words) [4]: strong binding | variation in maximal binding of con A (Concanavalin A (Con A)): less than 10%

Molecule: Manα1-2Manα1-6(Manα1-3)Manα1-6(Manα1-2Manα1-3)Manβ1-4GlcNAcβ1-4GlcNAcβSp [Glycan 144]
binding of 2G12 antibody (in words) [4]: strong preference for binding

Molecule: Manα1-3Manα1-6(Manα1-2Manα1-3)Manβ1-4GlcNAcβ1-4GlcNAcβSp [Glycan 140]
binding of 2G12 antibody (in words) [4]: did not support binding at all

Molecule: Manα1-6(Manα1-2Manα1-3)Manα1-6(Manα1-2Manα1-3)Manβ1-4GlcNAcβ1-4GlcNAcβSp [Glycan 143]
binding of 2G12 antibody (in words) [4]: did not support binding at all

Molecule: Manα1-6(Manα1-3)Manα1-6(Manα1-2Manα1-3)Manβ1-4GlcNAcβ1-4GlcNAcβSp [Glycan 142]
binding of 2G12 antibody (in words) [4]: did not support binding at all

Molecule: Neu5Acα2-6GalNAcα-
serum antibodies against glycan in metastatic breast cancer patients versus healthy individuals (in words) [2]: significantly higher levels

Molecule: Neu5Gc(2-6)GalNAc
serum antibodies against glycan in metastatic breast cancer patients versus healthy individuals (in words) [2]: bind

B1: Glycan 4: Ceruloplasmine mixture of bi and tri- and tetra-antenary N-glycans (protein, UniProt P00450 20-1065, looked up)
Ceruloplasmin: KEKHYYIGIIETTWDYASDHGEKKLISVDTEHSNIYLQNGPDRIGRLYKKALYLQYTDETFRTTIEKPVWLGFLGPIIKAETGDKVYVHLKNLASRPYTFHSHGITYYKEHEGAIYPDNTTDFQRADDKVYPGEQYTYMLLATEEQSPGEGDGNCVTRIYHSHIDAPKDIASGLIGPLIICKKDSLDKEKEKHIDREFVVMFSVVDENFSWYLEDNIKTYCSEPEKVDKDNEDFQESNRMYSVNGYTFGSLPGLSMCAEDRVKWYLFGMGNEVDVHAAFFHGQALTNKNYRIDTINLFPATLFDAYMVAQNPGEWMLSCQNLNHLKAGLQAFFQVQECNKSSSKDNIRGKHVRHYYIAAEEIIWNYAPSGIDIFTKENLTAPGSDSAVFFEQGTTRIGGSYKKLVYREYTDASFTNRKERGPEEEHLGILGPVIWAEVGDTIRVTFHNKGAYPLSIEPIGVRFNKNNEGTYYSPNYNPQSRSVPPSASHVAPTETFTYEWTVPKEVGPTNADPVCLAKMYYSAVEPTKDIFTGLIGPMKICKKGSLHANGRQKDVDKEFYLFPTVFDENESLLLEDNIRMFTTAPDQVDKEDEDFQESNKMHSMNGFMYGNQPGLTMCKGDSVVWYLFSAGNEADVHGIYFSGNTYLWRGERRDTANLFPQTSLTLHMWPDTEGTFNVECLTTDHYTGGMKQKYTVNQCRRQSEDSTFYLGERTYYIAAVEVEWDYSPQREWEKELHHLQEQNVSNAFLDKGEFYIGSKYKKVVYRQYTDSTFRVPVERKAEEEHLGILGPQLHADVGDKVKIIFKNMATRPYSIHAHGVQTESSTVTPTLPGETLTYVWKIPERSGAGTEDSACIPWAYYSTVDQVKDLYSGLIGPLIVCRRPYLKVFNPRRKLEFALLFLVFDENESWYLDDNIKTYSDHPEKVNKDDEEFIESNKMHAINGRMFGNLQGLTMHVGDEVNWYLMGMGNEIDLHTVHFHGHSFQYKHRGVYSSDVFDIFPGTYQTLEMFPRTPGIWLLHCHVTDHIHAGMETTYTVLQNEDTKSG
modifications: N-glycans
serum antibodies against glycan in metastatic breast cancer patients versus healthy individuals (in words) [2]: bind and significantly higher levels
